From PubChem BioAssay AID248 (DTP/NCI, 2004)
Inconclusive results and toxic doses are left out. Cut-off read from the data, not from the text of the source: active = T/C of 150% or more; inactive = T/C below 125%.

Tested on: L1210 leukemia ip in BDF1 mice, survival T/C
Test: NCI In Vivo Anticancer Drug Screen. Data for tumor model L1210 Leukemia (intraperitoneal) in B6D2F1 (BDF1) mice
Conditions: endpoint: mean survival time, higher = longer survival
How it was run: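 Survival endpoint. Drug-treated group vs vehicle group, expressed as T divided by C. Tumor passaged by transplantation.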

[1] = dose: 100.0 mg/kg/injection, schedule: Q04DX003 (ip), vehicle: saline
[2] = dose: 200.0 mg/kg/injection, schedule: Q04DX003 (ip), vehicle: saline
[3] = dose: 25.0 mg/kg/injection, schedule: Q01DX009 (ip), vehicle: saline
[4] = dose: 50.0 mg/kg/injection, schedule: Q01DX009 (ip), vehicle: saline
[5] = dose: 100.0 mg/kg/injection, schedule: Q01DX009 (ip), vehicle: saline
[6] = dose: 200.0 mg/kg/injection, schedule: Q01DX009 (ip), vehicle: saline
[7] = dose: 400.0 mg/kg/injection, schedule: Q01DX009 (ip), vehicle: saline
[8] = dose: 100.0 mg/kg/injection, schedule: Q01DX009 (ip), vehicle: Klucel (hydroxypropylcellulose) (HPC)
[9] = dose: 200.0 mg/kg/injection, schedule: Q01DX009 (ip), vehicle: Klucel (hydroxypropylcellulose) (HPC)

Measured: T/C

N#CCC(N)=S
inactive: dose: 25.0 mg/kg/injection, schedule: Q04DX002 (ip), vehicle: gum acacia 120 % of control | dose: 50.0 mg/kg/injection, schedule: Q04DX002 (ip), vehicle: gum acacia 109 % of control

CCCCSCC(N)CO (stereo not drawn)
inactive: [1] 101 % of control | [2] 101 % of control

CCS(=O)(=O)c1ccc(NC(=O)Oc2ccccc2OC)cc1
inactive: dose: 100.0 mg/kg/injection, schedule: Q01DX001 (ip), vehicle: carboxymethylcellulose (CMC) 89 % of control | dose: 200.0 mg/kg/injection, schedule: Q01DX001 (ip), vehicle: carboxymethylcellulose (CMC) 100 % of control | dose: 400.0 mg/kg/injection, schedule: Q01DX001 (ip), vehicle: carboxymethylcellulose (CMC) 100 % of control

CCC(C)C(N)C(=O)O (stereo not drawn)
inactive: dose: 100.0 mg/kg/injection, schedule: Q04DX003 (ip), vehicle: Klucel (hydroxypropylcellulose) (HPC) 103 % of control | dose: 200.0 mg/kg/injection, schedule: Q04DX003 (ip), vehicle: Klucel (hydroxypropylcellulose) (HPC) 106 % of control | dose: 400.0 mg/kg/injection, schedule: Q04DX003 (ip), vehicle: Klucel (hydroxypropylcellulose) (HPC) 101 % of control

COc1ccc2c(c1)c(Cl)c1ccc(Cl)cc1[n+]2[O-]
inactive: dose: 100.0 mg/kg/injection, schedule: Q04DX002 (ip), vehicle: saline with Tween-80 91 % of control | dose: 200.0 mg/kg/injection, schedule: Q04DX002 (ip), vehicle: saline with Tween-80 95 % of control | dose: 400.0 mg/kg/injection, schedule: Q04DX002 (ip), vehicle: saline with Tween-80 107 % of control

CCN(CC)CCOc1cc(C)ccc1C
inactive: [3] 98 % of control | [4] 93 % of control | dose: 50.0 mg/kg/injection, schedule: Q04DX003 (ip), vehicle: saline 100 % of control | [5] 95 % of control | [1] 98 % of control

COC(=N)c1cccc(O)c1
inactive: [5] 99 % of control | [6] 97 % of control | [7] 99 % of control

NNC(=O)CCCCCC(=O)NN
inactive: [5] 93 % of control | [1] 94 % of control | [6] 95 % of control | [2] 96 % of control | [7] 106 % of control | dose: 400.0 mg/kg/injection, schedule: Q04DX003 (ip), vehicle: saline 102 % of control

CCCCc1cc([N+](=O)[O-])cc([N+](=O)[O-])c1OCN1C(=O)C2C3CCC(O3)C2C1=O (stereo not drawn)
inactive: dose: 100.0 mg/kg/injection, schedule: Q04DX002 (ip), vehicle: Klucel (hydroxypropylcellulose) (HPC) 113 % of control | dose: 200.0 mg/kg/injection, schedule: Q04DX002 (ip), vehicle: Klucel (hydroxypropylcellulose) (HPC) 98 % of control | dose: 400.0 mg/kg/injection, schedule: Q04DX002 (ip), vehicle: Klucel (hydroxypropylcellulose) (HPC) 106 % of control

CCC1C(CC(=O)O)=C(C)NC(C)=C1CC(=O)O
inactive: [8] 109 % of control | [9] 90 % of control

CC12CCC3=C(CCc4cc(O)ccc43)C1CCC2=O (stereo not drawn)
inactive: dose: 75.0 mg/kg/injection, schedule: Q01DX001 (ip), vehicle: steriod suspending solution 91 % of control | dose: 150.0 mg/kg/injection, schedule: Q01DX001 (ip), vehicle: steriod suspending solution 96 % of control | dose: 300.0 mg/kg/injection, schedule: Q01DX001 (ip), vehicle: steriod suspending solution 101 % of control

CC(COS(C)(=O)=O)(COS(C)(=O)=O)Cc1ccccc1
inactive: [8] 103 % of control | [9] 95 % of control | dose: 400.0 mg/kg/injection, schedule: Q01DX009 (ip), vehicle: Klucel (hydroxypropylcellulose) (HPC) 93 % of control

C[P+]1(C)CC2OC23CCCCC31 (stereo not drawn)
inactive: dose: 12.5 mg/kg/injection, schedule: Q01DX009 (ip), vehicle: saline 98 % of control | [3] 93 % of control | [4] 94 % of control | [5] 96 % of control

O=C(c1ccc(F)cc1)c1ccc(Cl)cc1Cl
inactive: dose: 100.0 mg/kg/injection, schedule: Q04DX003 (ip), vehicle: saline with Tween-80 97 % of control | dose: 200.0 mg/kg/injection, schedule: Q04DX003 (ip), vehicle: saline with Tween-80 98 % of control | dose: 400.0 mg/kg/injection, schedule: Q04DX003 (ip), vehicle: saline with Tween-80 101 % of control

CCCCC(CCCC)NC(C)COC(=O)c1ccc(N)cc1 (stereo not drawn)
inactive: dose: 75.0 mg/kg/injection, schedule: Q01DX001 (ip), vehicle: carboxymethylcellulose (CMC) 104 % of control | dose: 150.0 mg/kg/injection, schedule: Q01DX001 (ip), vehicle: carboxymethylcellulose (CMC) 100 % of control | dose: 300.0 mg/kg/injection, schedule: Q01DX001 (ip), vehicle: carboxymethylcellulose (CMC) 101 % of control
